The experiment has as its target human mGluR4 (Homo sapiens (Human), UniProt Q14833). Description: mGluR4 potentiation assay, CHO cells transfected with human mGluR4, Ca2+-sensitive dye, EC20 agonist. Conditions: potentiation of mGluR4. It is filed as cell-based. How it is done: The disclosed compounds and compositions can be evaluated for their ability to act as a potentiator of metabotropic glutamate receptor activity, in particular mGluR4 activity, by any suitable known methodology known in the art. For example, Chinese Hamster Ovary (CHO) cells transfected with human mGluR4 or HEK cells co-transfected with rat mGluR4 and the G-protein regulated Inwardly Rectifying Potassium channel (GIRK) were plated in clear bottom assay plates for assay in a Hamamatsu FDSS Fluorometric Plate Reader. The cells were loaded with either a Ca2+-sensitive fluorescent dye or the thallium responsive dye and the plates were washed and placed into a suitable kinetic plate reader. For human mGluR4 assays, a fluorescence baseline was established for 3-5 seconds, the disclosed compounds were then added to the cells, and the response in cells was measured. Approximately two and a half minutes later, a concentration of mGluR4 orthosteric agonist (e.g. glutamate or L-AP4) eliciting approximately 20% (EC20) of the maximal agonist response was added to the cells, and the response was measured. Two minutes later, a concentration of mGluR4 agonist (e.g. glutamate or L-AP4) eliciting 80% (EC80) of the maximal agonist response was added to the cells, and the response was measured. For rat mGluR4/GIRK experiments, a baseline was established for approximately five seconds, disclosed compounds were added, and either an EC20 or EC80 concentration of agonist was added approximately two and one half minutes later. Potentiation of the agonist response of mGluR4 by the disclosed compounds was observed as an increase in response to the EC20 concentration of agonist in the presence of compound compared to the response to agonist in the absence of compound. Similarly, antagonism of the agonist response of mGluR4 by the disclosed compounds was observed as a decrease in response to the EC80 concentration of agonist in the presence of compound compared to the response to agonist in the absence of compound.
The above described assay operated in two modes. In the first mode, a range of concentrations of the disclosed compounds are added to cells, followed by a single fixed concentration of agonist. If the compound acts as a potentiatior, an EC50 value for potentiation and a maximum extent of potentiation by the compound at this concentration of agonist is determined by non-linear curve fitting. If the compound acts as a noncompetitive antagonist, an IC50 value is determined by non-linear curve fitting. In the second mode, several fixed concentrations of the disclosed compounds are added to various wells on a plate, followed by a range in concentrations of agonist for each concentration of disclosed compound. The EC50 values for the agonist at each concentration of compound are determined by non-linear curve fitting. A decrease in the EC50 value of the agonist with increasing concentrations of the sample compound (a leftward shift of the agonist concentration-response curve) is an indication of the degree of mGluR4 potentiation at a given concentration of the sample compound. A decrease in the maximal response of the agonist with increasing concentrations of the sample compounds, with or without a rightward shift in agonist potency, is an indication of the degree of noncompetitive antagonism at mGluR4. The second mode also indicates whether the sample compounds also affect the maximum response to mGluR4 to agonists.

Setting [1] is: main compound table, species not given.
Setting [2] is: summary list repeated at the end of the table, species not stated.

We go through 26 compounds from patent publication US10221172B2, “Benzothiazole and benzisothiazole-substituted compounds as mGluR4 allosteric potentiators, compositions, and methods of treating neurological dysfunction” (Vanderbilt University, priority 2015, dated 2019).

Chain of human mGluR4 (Q14833 33-912): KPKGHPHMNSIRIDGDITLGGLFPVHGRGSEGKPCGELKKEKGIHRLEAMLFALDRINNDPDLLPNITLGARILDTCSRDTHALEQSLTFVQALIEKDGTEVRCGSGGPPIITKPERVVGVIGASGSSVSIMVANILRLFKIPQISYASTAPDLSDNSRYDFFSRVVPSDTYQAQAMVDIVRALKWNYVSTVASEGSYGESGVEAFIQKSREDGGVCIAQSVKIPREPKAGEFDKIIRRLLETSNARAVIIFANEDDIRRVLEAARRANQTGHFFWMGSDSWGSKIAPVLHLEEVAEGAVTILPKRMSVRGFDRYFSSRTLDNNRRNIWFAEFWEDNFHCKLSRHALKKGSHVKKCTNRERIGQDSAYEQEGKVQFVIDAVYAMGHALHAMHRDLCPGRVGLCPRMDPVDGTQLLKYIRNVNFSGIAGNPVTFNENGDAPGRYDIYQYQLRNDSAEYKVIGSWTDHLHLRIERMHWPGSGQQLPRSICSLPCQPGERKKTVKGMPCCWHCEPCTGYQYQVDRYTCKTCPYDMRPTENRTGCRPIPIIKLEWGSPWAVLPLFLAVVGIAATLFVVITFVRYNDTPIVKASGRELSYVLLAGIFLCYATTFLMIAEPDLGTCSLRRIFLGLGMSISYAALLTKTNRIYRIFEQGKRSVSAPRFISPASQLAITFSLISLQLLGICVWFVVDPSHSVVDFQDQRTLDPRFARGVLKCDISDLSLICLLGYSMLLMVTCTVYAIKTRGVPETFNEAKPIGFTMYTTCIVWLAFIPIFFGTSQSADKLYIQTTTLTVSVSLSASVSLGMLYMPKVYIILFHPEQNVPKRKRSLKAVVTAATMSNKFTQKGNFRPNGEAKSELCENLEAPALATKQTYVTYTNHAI

Consider `O=C(C1CC1)N1CCC(c2nsc3cc(Nc4n[nH]c5cccnc45)ccc23)CC1` [Example 71, (4-(6-((1H-pyrazolo [4,3-b]pyridin-3-yl)amino)benzo[d]isothiazol-3-yl)piperidin-1-yl) (cyclopropyl) methanone], for which the EC50 came out at 388 nM under setting [1] and 388 nM under setting [2].

Take `CC(=O)N1CCC(c2nsc3cc(Nc4n[nH]c5ncccc45)ccc23)CC1` [Example 64, 1-(4-(6-((1H-pyrazolo[3,4-b]pyridin-3-yl)amino)benzo[d]isothiazol-3-yl)piperidin-1-yl)ethan-1-one]: the EC50 under setting [1] was 409 nM and the EC50 under setting [2] is 409 nM.

As for `CCc1nsc2cc(Nc3n[nH]c4cccnc34)cnc12` [Example 41, 3-ethyl-N-(1H-pyrazolo[4,3-b]pyridin-3-yl)isothiazolo [4,5-b]pyridin-6-amine], the EC50 amounted to 38.3 nM under setting [1] and 38.3 nM under setting [2].

In the case of `c1cnc2c(Nc3cnc4c(CN5CCCC5)nsc4c3)n[nH]c2c1` [Example 58, N-(1H-pyrazolo[4,3-b]pyridin-3-yl)-3-(pyrrolidin-1-ylmethyl) isothiazolo [4,5-b]pyridin-6-amine], the EC50 by setting is: under setting [1], 3740 nM; under setting [2], 3740 nM.

Regarding `CN1CCN(C(=O)c2nsc3cc(Nc4n[nH]c5cccnc45)ccc23)CC1` [Example 12, (6-((1H-pyrazolo [4,3-b]pyridin-3-yl)amino)benzo[d]isothiazol-3-yl)(4-methylpiperazin-1-yl) methanone], the EC50 under setting [1] is 1140 nM and the EC50 under setting [2] amounted to 1140 nM.

Regarding `c1cnc2[nH]nc(Nc3cnc4c(CN5CCCCC5)nsc4c3)c2c1` [Example 49, 3-(piperidin-1-ylmethyl)-N-(1H-pyrazolo[3,4-b]pyridin-3-yl)isothiazolo[4,5-b] pyridin-6-amine], the EC50 was 1560 nM under setting [1] and 1560 nM under setting [2].

`CCCc1nsc2cc(Nc3n[nH]c4cccnc34)ccc12` [Example 23, 3-propyl-N-(1H-pyrazolo [4,3-b]pyridin-3-yl)benzo[d]isothiazol-6-amine]: the EC50 runs as follows: under setting [1], 56 nM; under setting [2], 56 nM.

As to `FC1(F)CCCN(Cc2nsc3cc(Nc4n[nH]c5cccnc45)cnc23)C1` [Example 61, 3-((3,3-difluoropiperidin-1-yl)methyl)-N-(1H-pyrazolo[4,3-b]pyridin-3-yl)isothiazolo[4,5-b] pyridin-6-amine], the EC50 is, setting by setting: under setting [1], 55.9 nM; under setting [2], 55.9 nM.

`CCCc1nsc2cc(Nc3n[nH]c4nccnc34)ccc12` [Example 24, 3-propyl-N-(1H-pyrazolo[3,4-b]pyrazine-3-yl)benzo[d]isothiazol-6-amine]: the EC50 reads like this: under setting [1], 23.4 nM; under setting [2], 23.4 nM.

With `c1cnc2c(Nc3ccc4c(-c5ccsc5)nsc4c3)n[nH]c2n1` [Example 46, N-(1H-pyrazolo[3,4-b]pyrazin-3-yl)-3-(thiophen-3-yl)benzo[d] isothiazol-6-amine], the EC50 reads like this: under setting [1], 144 nM; under setting [2], 144 nM.

For `O=C(c1nsc2cc(Nc3n[nH]c4cccnc34)ccc12)N1CCCC1c1ccccn1` (stereo not shown) [Example 11, (6-((1H-pyrazolo [4,3-b]pyridin-3-yl)amino)benzo[d]isothiazol-3-yl)(2-(pyridin-2-yl)pyrrolidin-1-yl) methanone], the EC50 reads like this: under setting [1], more than 10000 nM; under setting [2], more than 10000 nM.

With `O=C(NC1CC(F)(F)C1)c1nsc2cc(Nc3n[nH]c4cccnc34)ccc12` [Example 4, 6-((1H-pyrazolo[4,3-b]pyridin-3-yl)amino)-N-(3,3-difluorocyclobutyl)benzo[d] isothiazole-3-carboxamide], the EC50 reads like this: under setting [1], 32 nM; under setting [2], 32 nM.

Take `CN1CCN(C(=O)c2nsc3cc(Nc4n[nH]c5nccnc45)ccc23)CC1=O` [Example 32, 4-(6-((1H-pyrazolo[3,4-b]pyrazin-3-yl)amino)benzo [d]isothiazole-3-carbonyl)-1-methylpiperazin-2-one]: the EC50 worked out at 1530 nM under setting [1] and 1530 nM under setting [2].

With `CC1CCN(C(=O)c2nsc3cc(Nc4n[nH]c5cccnc45)ccc23)CC1` [Example 19, (6-((1H-pyrazolo [4,3-b]pyridin-3-yl)amino)benzo[d]isothiazol-3-yl) (4-methylpiperidin-1-yl)methanone], the EC50 is 408 nM under setting [1] and 408 nM under setting [2].

Turning to `Cc1nsc2cc(Nc3n[nH]c4ncccc34)cnc12` [Example 48, 3-methyl-N-(1H-pyrazolo [3,4-b]pyridin-3-yl)isothiazolo[4,5-b] pyridin-6-amine], the EC50 turned out to be 180 nM under setting [1] and 180 nM under setting [2].

On to `c1ccc(-c2nsc3cc(Nc4n[nH]c5ncccc45)ccc23)cc1` [Example 44, 3-phenyl-N-(1H-pyrazolo [3,4-b]pyridin-3-yl)benzo[d]isothiazol-6-amine], for which the EC50 by setting is: under setting [1], 2040 nM; under setting [2], 2040 nM.

With `O=C(c1nsc2cc(Nc3n[nH]c4cccnc34)ccc12)N1CCSCC1` [Example 16, (6-((1H-pyrazolo [4,3-b]pyridin-3-yl)amino)benzo[d]isothiazol-3-yl)(thiomorpholino) methanone], the EC50 reads like this: under setting [1], 85 nM; under setting [2], 85 nM.

`CC(=O)N1CCC(c2nsc3cc(Nc4n[nH]c5cccnc45)ccc23)CC1` [Example 35, 1-(4-(6-((1H-pyrazolo[4,3-b]pyridin-3-yl)amino)benzo[d]isothiazol-3-yl)piperidin-1-yl)ethan-1-one]: the EC50 was 199 nM under setting [1] and 199 nM under setting [2].

For `O=C(c1nsc2cc(Nc3n[nH]c4cccnc34)ccc12)N1CCCOCC1` [Example 17, (6-((1H-pyrazolo[4,3-b]pyridin-3-yl)amino)benzo[d]isothiazol-3-yl)(1,4-oxazepan-4-yl)methanone], the EC50 reads like this: under setting [1], 607 nM; under setting [2], 607 nM.

As to `CCc1nsc2cc(Nc3n[nH]c4ncccc34)cnc12` [Example 42, 3-ethyl-N-(1H-pyrazolo[3,4-b]pyridin-3-yl)isothiazolo [4,5-b]pyridin-6-amine], the EC50 by setting is: under setting [1], 100 nM; under setting [2], 100 nM.

On to `O=C(c1nsc2cc(Nc3n[nH]c4cccnc34)ccc12)N1CCCC(F)(F)C1` [Example 9, (6-((1H-pyrazolo [4,3-b]pyridin-3-yl)amino)benzo[d]isothiazol-3-yl) (3,3-difluoropiperidin-1-yl)methanone], for which the EC50 by setting is: under setting [1], 233 nM; under setting [2], 233 nM.

As to `O=C(c1nsc2cc(Nc3n[nH]c4cccnc34)ccc12)N1CCC(F)(F)C1` [Example 3, (6-((1H-pyrazolo [4,3-b]pyridin-3-yl)amino)benzo[d]isothiazol-3-yl) (3,3-difluoropyrrolidin-1-yl) methanone], the EC50 came out at 325 nM under setting [1] and 325 nM under setting [2].

On to `c1cnc2[nH]nc(Nc3cnc4c(CN5CCOCC5)nsc4c3)c2c1` [Example 55, 3-(morpholinomethyl)-N-(1H-pyrazolo[3,4-b]pyridin-3-yl)isothiazolo[4,5-b] pyridin-6-amine], for which the EC50 is, setting by setting: under setting [1], 1030 nM; under setting [2], 1030 nM.

For `FC1CCN(Cc2nsc3cc(Nc4n[nH]c5cccnc45)cnc23)CC1` [Example 51, 3-((4-fluoropiperidin-1-yl)methyl)-N-(1H-pyrazolo[4,3-b]pyridin-3-yl)isothiazolo[4,5-b] pyridin-6-amine], the EC50 is 247 nM under setting [1] and 247 nM under setting [2].

Take `CC(C)(C)C1CCN(Cc2nsc3cc(Nc4n[nH]c5ncccc45)cnc23)CC1` [Example 57, 3-((4-(tert-butyl)piperidin-1-yl)methyl)-N-(1H-pyrazolo[3,4-b]pyridin-3-yl)isothiazolo[4,5-b] pyridin-6-amine]: the EC50 is, setting by setting: under setting [1], 4130 nM; under setting [2], 4130 nM.

As for `FC(F)(F)c1nsc2cc(Nc3n[nH]c4ncccc34)ccc12` [Example 29, N-(1H-pyrazolo[3,4-b]pyridin-3-yl)-3-(trifluoromethyl)benzo[d] isothiazol-6-amine], the EC50 stood at 1240 nM under setting [1] and 1240 nM under setting [2].
